Entries after “also recorded” stand apart in the source; their conditions may differ.

The subject of assay [1] is LnCaP prostate cancer cell lines. In words: Cell proliferation, LNCaP. It counts as cell-based. The protocol: (§1) Cell Proliferation: Cell proliferation was determined using a Hoechst stain (Sigma, St. Louis, Mo.) to quantify DNA. 5,000 cells of the designated cell line were plated in 96 well plates and treated the next day, designated as time point 0, with the indicated concentration of the specified compound maintained for the duration of the assay. At the indicated time points the media was removed and plated frozen at −80° C. Double distilled H2O was then added and the plates were incubated at 37° C. for 1 hour. After 1 hour the plates were frozen at −80° C. After freezing the plates were thawed and Hoechst stain was diluted 1:1000 in THE buffer (10 mM Tris, 2M NaCl, 1 mM Na2EDTA). The final fluorescence was measured on the Victor X2 plate reader at 355/460 nm, and cell proliferation was determined with the formula: % Cell Proliferation=100×(Sample fluorescence−background fluorescence)/(Control fluorescence−background fluorescence).

The target of the next assay is T1, Hsp70i C306D mutant (Homo sapiens, UniProt P0DMV8, C306D).
T1 construct: His tag (cleaved yes); made in house
Description: Thermofluor assay, Hsp70i C306D mutant. It counts as binding. To be noted: ±ATP. The protocol:
Protein Purification: Plasmids were provided for human HSPA1A, HSPA8, and HSPA1A C306D. Plasmids were transformed in Rosetta competent cells and single colonies were picked from streaked LB/ampicillin/chloramphenicol plates. Cultures were grown at 37° C. for 4-6 hours, were cooled to 15° C. and expression was induced overnight with 200 uM isopropyl 1-thio-β-D-galactopyranoside. Cells were pelleted and resuspended in Ni-lysis buffer (50 mM Na2HPO4, 300 mM NaCl, 10 mM Imidazole, 0.05% Tween-20) supplemented with Complete Mini protease inhibitor tablets (Roche, Mannheim, Germany) and […], and then sonicated. The cells were again pelleted and the supernatant was incubated with complete His-Tag purification resin (Roche, Mannheim, Germany) for 5 hours at 4° C. The resin was washed with Ni-wash buffer (50 mM Na2HPO4, 300 mM NaCl, 20 mM Imidazole, 0.05% Tween-20) and eluted with Ni-elution buffer (50 mM Na2HPO4, 300 mM NaCl, 250 mM Imidazole, 0.05% Tween-20). […]
Thermofluor Assay: SYPRO orange (Molecular Probes, Eugene, Oreg.) was diluted 1:1000 in 25 mM HEPES, 5 mM MgCl2, 10 mM KCl (pH 7.5) and purified Hsp70i, Hsc70, Hsp70i C306, or Hsp90, was then added to a final dilution of 0.04 mg/ml. […] A melt curve protocol (25° C. to 90° C., increasing 0.5° C. and a plate reading every 30 seconds) was run on a CFX384 Touch™ Real-Time PCR Detection System (BioRad). […]
(In DSF a fluorescence change marks the thermal transition of the protein.)

Assay [2] concerns the target T2, Hsp70i (Homo sapiens, UniProt P0DMV8). Description: Thermofluor assay, purified Hsp70i. It counts as binding. More on the design: Full length Hsp70 (black arrow) and tryptic fragments (blue arrows); His tag (cleaved yes); made in house. The conditions noted are these: for decrease of ATP bound Hsp70i Tm: in presence of ATP; for decrease of the Tm of Hsp70i: no nucleotide. The protocol:
Protein Purification: Plasmids were provided for human HSPA1A, HSPA8, and HSPA1A C306D. Plasmids were transformed in Rosetta competent cells and single colonies were picked from streaked LB/ampicillin/chloramphenicol plates. Cultures were grown at 37° C. for 4-6 hours, were cooled to 15° C. and expression was induced overnight with 200 uM isopropyl 1-thio-β-D-galactopyranoside. Cells were pelleted and resuspended in Ni-lysis buffer (50 mM Na2HPO4, 300 mM NaCl, 10 mM Imidazole, 0.05% Tween-20) supplemented with Complete Mini protease inhibitor tablets (Roche, Mannheim, Germany) and […], and then sonicated. The cells were again pelleted and the supernatant was incubated with complete His-Tag purification resin (Roche, Mannheim, Germany) for 5 hours at 4° C. The resin was washed with Ni-wash buffer (50 mM Na2HPO4, 300 mM NaCl, 20 mM Imidazole, 0.05% Tween-20) and eluted with Ni-elution buffer (50 mM Na2HPO4, 300 mM NaCl, 250 mM Imidazole, 0.05% Tween-20). The elution was then incubated with tobacco etch virus protease overnight at 4° C. The following day the elution was incubated with the γ-phosphate ATP sepharose resin for 30 minutes at 4° C. Next the resin was washed with ATP-wash buffer (50 mMTris-HCl, 60 mM MgCl2, 60 mM KCl, 10 mM Citrate) supplemented with 1 mM DTT and then ATP-wash buffer supplemented with 2 mM ATP was added to the resin to elute the protein. The final elutions were concentrated in Amicon Ultra-15 Centrifugal Filter Units (EMD Millipore, Billerica, Mass.) and buffer exchanged into 25 mM HEPES, 5 mM MgCl2, 10 mM KCl (pH 7.5) and stored at −80° C. until use.
Thermofluor Assay: SYPRO orange (Molecular Probes, Eugene, Oreg.) was diluted 1:1000 in 25 mM HEPES, 5 mM MgCl2, 10 mM KCl (pH 7.5) and purified Hsp70i, Hsc70, Hsp70i C306, or Hsp90, was then added to a final dilution of 0.04 mg/ml. Where indicated 0.001% or 0.01% Triton X-100 (Sigma) was also added. The indicated compound or DMSO was then added at the specified concentration and each sample was added as 5 replicates to a 384 well plate (BioRad, Hercules, Calif.). A melt curve protocol (25° C. to 90° C., increasing 0.5° C. and a plate reading every 30 seconds) was run on a CFX384 Touch™ Real-Time PCR Detection System (BioRad). To determine the midpoint of the protein unfolding transition or Tm, GraphPad Prisim4 (La Jolla, Calif.) was used to normalize the melt curve and to calculate the first derivate of the melt curve, with the steepest point of the slope being the Tm.

In another assay the test system is RWPE1. Description: Cell proliferation, RWPE1. It counts as cell-based. The conditions noted are these: non tumorigenic RWPE1. The protocol:
as §1

A further assay has as its target Hsp70 (Homo sapiens, UniProt P0DMV8). In words: Single turnover ATPase assay. It counts as biochemical. To be noted: presence or absence of co-chaperone Hlj1. The method, then:
ATPase Assay: Single turnover assays were performed as previously described [Fewell et al. (2004). Small molecule modulators of endogenous and co-chaperone-stimulated Hsp70 ATPase activity. The Journal of biological chemistry 279, 51131-51140]. Briefly, Hsp70 was incubated with ^32P-ATP and cold ATP in single turnover buffer (1M KCl, 250 mM HEPES, 110 mM MgOAc) for 30 minutes on ice. ^32P-ATP-Hsp70 complex was purified from a Nick Column-Sephadex G-50 (Amersham, Piscataway, N.J.). Glycerol was added and the complexes were stored at −80° C. To determine ATP hydrolysis, a sample was thawed and added to single turnover buffer containing Hlj1 and compound added after 60 seconds. At the specified time points an aliquot of the reaction is removed, added to stop solution (2M LiCl, 4M formic acid, 36 mM ATP) and spotted on a TLC plate. The percentage of ATP hydrolyzed to ADP and P, was then calculated.

In assay [3] the target is T2, Hsp70i. Description: Partial proteolysis of Hsp70i with trypsin. Also on record: Full length Hsp70 (black arrow) and tryptic fragments (blue arrows); His tag (cleaved yes); made in house. The conditions noted are these: 100 uM compound, silver stain. The protocol:
Mass Spectrometry: Tryptic peptides were subjected to matrix-assisted laser desorption-ionization mass spectrometry (MALDI-MS) on an ABSCIEX TOF/TOF 5800 mass spectrometer. Positive mode time of flight was used to identify peptides, and individual peptides were sequenced by MS/MS. All sequence and peptide fingerprint data was searched using the UniProt database.
Partial Proteolysis: Hsp70i (8 μg for SDS-PAGE analysis, 2 μg for mass spec analysis) was incubated with 1 mM ATP, 1 mM ADP, 100 uM HS72, 100 uM HS72+1 mM ATP, or 100 uM HS72+1 mM ADP for 30 min. at room temperature. Hsp70i was digested by adding 0.1 μg of trypsin (Promega, Madison, Wis.) per 2 μg of protein and was quenched by addition of 25% TFA for mass spec analysis or addition of 5×SDS loading buffer and boiling for SDS-PAGE analysis at 2 hours, or 24 hours. Gels were visualized by silver stain.

T2 sequence (P0DMV8 whole entry, the tested form may be a part): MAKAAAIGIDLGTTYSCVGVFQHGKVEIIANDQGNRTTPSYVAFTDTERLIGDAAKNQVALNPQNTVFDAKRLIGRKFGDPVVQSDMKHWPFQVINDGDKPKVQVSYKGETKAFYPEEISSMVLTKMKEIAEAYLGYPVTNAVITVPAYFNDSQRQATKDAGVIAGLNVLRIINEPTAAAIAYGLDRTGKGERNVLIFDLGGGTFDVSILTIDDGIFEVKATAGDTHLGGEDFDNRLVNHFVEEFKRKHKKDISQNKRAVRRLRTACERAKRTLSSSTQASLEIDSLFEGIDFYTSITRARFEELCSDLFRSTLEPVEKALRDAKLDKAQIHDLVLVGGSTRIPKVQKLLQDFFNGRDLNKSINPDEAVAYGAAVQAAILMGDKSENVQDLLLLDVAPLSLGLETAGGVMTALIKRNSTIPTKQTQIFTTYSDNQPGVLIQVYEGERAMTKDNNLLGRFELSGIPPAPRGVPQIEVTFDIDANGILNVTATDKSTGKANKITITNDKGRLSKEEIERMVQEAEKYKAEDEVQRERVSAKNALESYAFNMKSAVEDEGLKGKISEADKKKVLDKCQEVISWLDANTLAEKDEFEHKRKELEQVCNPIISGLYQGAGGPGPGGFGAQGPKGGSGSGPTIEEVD
T1 sequence (P0DMV8 whole entry C306D): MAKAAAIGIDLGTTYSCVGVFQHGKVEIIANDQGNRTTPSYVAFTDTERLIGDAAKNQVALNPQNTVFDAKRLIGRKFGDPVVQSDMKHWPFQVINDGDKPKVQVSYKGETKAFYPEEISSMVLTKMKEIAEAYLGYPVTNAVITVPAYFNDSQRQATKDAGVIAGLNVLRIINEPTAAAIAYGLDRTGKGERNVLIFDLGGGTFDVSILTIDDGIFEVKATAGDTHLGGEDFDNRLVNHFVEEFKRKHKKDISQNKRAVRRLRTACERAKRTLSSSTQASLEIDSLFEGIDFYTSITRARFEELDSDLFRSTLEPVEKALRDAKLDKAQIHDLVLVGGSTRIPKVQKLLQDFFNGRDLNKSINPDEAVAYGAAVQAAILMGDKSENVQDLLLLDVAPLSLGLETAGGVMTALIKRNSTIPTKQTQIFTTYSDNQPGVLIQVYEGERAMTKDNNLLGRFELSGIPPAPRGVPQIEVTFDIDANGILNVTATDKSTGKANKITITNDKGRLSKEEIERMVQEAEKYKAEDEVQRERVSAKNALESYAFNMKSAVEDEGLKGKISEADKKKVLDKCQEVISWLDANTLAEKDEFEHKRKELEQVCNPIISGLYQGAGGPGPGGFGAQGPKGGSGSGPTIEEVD
Sequence of Hsp70 (P0DMV8 whole entry): as the sequence (P0DMV8 whole entry, the tested form may be a part) above

Take `CCCn1c(NC(=O)[C@H]2CCCN(c3cnccn3)C2)nc2ccccc21` [HS-72, (S)—N-(1-propyl-1H-benzo[d]imidazol-2-yl)-1-(pyrazin-2-yl)piperidine-3-carboxamide]: the cell proliferation entry in assay [1] was “inhibits proliferation”. Also, on Hsp70i C306D mutant, the “effect on Tm of the Hsp70i C306D mutant” value was “does not change”. Moreover, at Hsp70i [2] (10 uM), the “decrease of ATP bound Hsp70i Tm” value came out at 0.5 °C and the “decrease of the Tm of Hsp70i” value was 0.1 °C. In addition, on Hsp70i [2] (100 uM), the “decrease of ATP bound Hsp70i Tm” value was determined as 1 °C and the “decrease of the Tm of Hsp70i” value is 0.5 °C. Moreover, at Hsp70i [2] (100 uM, 0.001% or 0.01% Triton), the “Tm of Hsp70 with compound alone vs. compound plus detergent” value is “no difference”. For the same compound, on Hsp70i [2] (absence or presence of ATP), the “effect on Hsp70i Tm in combination with PES” value is recorded as “no synergistic or additive effect” and the “effect on Hsp70i Tm in combination with VER” value was “no observed synergistic or additive effect”. In addition, on Hsp70i [2] (compound alone), the “effect on Tm of Hsp70i” value is listed as “decreased in a dose dependent manner”. The “effect on Tm of ADP Hsp70i” value on Hsp70i [2] (in presence of ADP) is “does not change”. In addition, the cell proliferation entry in the assay with RWPE1 is given as “insensitive; also recorded: only inhibited at the highest concentration tested”. Besides, at Hsp70, the “effect on Hsp70 ATPase activity” value is “does not reduce”. Besides, at Hsp70i [3], the “proteolytic pattern of Hsp70i” value is reported as “profound difference in the proteolytic pattern”.

For the origin of these results see patent publication US10000469B2, “Heat shock protein 70 (hsp-70) receptor ligands” (Duke University, priority 2014, dated 2018).
